Results on 3 compounds are retold here after patent US20080153908A1, “Method of Treating Mucin Deficiency with an Active Pharmaceutical and Related Composition” (priority 2006, published 2008).

One test concerns rat colon cells. As to conditions: isolated vascularly perfused rat colon; cited from earlier work.
In test [1] the test system is mucin content of tear film. Put plainly: Stimulation of mucin production: tear film mucin content in patients with mucin deficiency. It is filed as in vivo, human. The note with it: 0.5 wt. % solution in artificial tear solution, four-times a day for four days; control receives artificial tear solution. The procedure:
A 0.5 wt. % solution of sodium butyrate in artificial tear solution is administered to one of a […] that suffer from mucin deficiency. The patients receiving butyrate drops belong to the study group. The patients in the control group receive artificial tear solution. Both groups receive treatment four-times a day for four days. Following treatment, tear film samples are collected and tested to quantify mucin content.

The next test deals with colonic mucin production. The note with it: about 0.1 millimolar sodium butyrate; tissue harvested from colonic cancer patients; cited from earlier work.

As for `CC(=O)O` [acetate], the “stimulation of mucin secretion of rat colon cells” value with rat colon cells was “can stimulate the mucin secretion”.

Regarding `CCC(=O)O` [propionate], in the test with rat colon cells, the “stimulation of mucin secretion of rat colon cells” value is “can stimulate the mucin secretion”.

Turning to `CCCC(=O)[O-].[Na+]` [sodium butyrate], the “concentration of mucin in tear film samples versus control group” value in test [1] was “higher concentration of mucin”. In the test on colonic mucin production, the “increase in colonic mucin production compared to a control group” value is listed as “almost five fold increase”.
